Measured values as given in US10344037B2, “Use of the FL-one hundred eighteen core chemical structure platform to generate FL-one hundred eighteen derivatives for treatment of human disease” (priority 2014, dated 2019).

Assays:
[1] = Pharmacokinetics after IV injection in tumor-bearing SCID mice; assay type: in vivo
Description: Then, blood and tumor tissues were collected at 10 min, 1 h, 4 h, 12 h, 24, and 48 h. Three SCID mice at each time point were used. Standard deviation (SD) was analyzed using Excel software.
A 800 μl aliquot of ice cold acidified methanol is added to 200 μl plasma and vortexed for 15 sec. […] A 800 μl aliquot of ice cold acidified methanol is added to 200 μl homogenized tissue and then vortexed for 1 min. The samples are then centrifuged at 13,000 rpm for 5 min. and the supernatant is transferred to a clean 13×100 mm glass tube. Samples are dried under vacuum and stored at −20° C. until analysis. Dried samples were then reconstituted in 200 μl of mobile phase (80% 3% TEA and 20% acetonitrile pH 5.5) and 15 μl is injected. Analysis is carried out using an Acquity UPLC system with Fluorescence detection interfaced with Empower software. Separation is carried out on a Acquity BEH Shield RP18 1.7 μm, 2.1 mm×100 mm column (Waters). […] CPT-11 is used as the internal standard (IS); a 10 μl aliquot of a 1.3 μg/ml solution is added to each 200 μl sample. The fluorescence detector is set at the following Excitation (Ex) and Emissions (Em) wavelengths: Ex 370 nm Em 510 nm. […] To ensure quality assurance, quality control samples are prepared in plasma at 25 and 250 ng/ml aliquoted and stored at −20° C. The QC's are injected in duplicate at the beginning and end of the assay. […] Validation consists of running twelve standard curves over the course of 5 days. QC samples are analyzed with each curve.

HCT116-A2 cells = assay: cells; assay type: cell-based, human
Description: (§1) Cancer cell viability and growth are determined by MTT assay. […] MTT is used as a colorimetric substrate for measuring cell viability and growth. When cell growth is inhibited, there is an alteration of cellular redox activity, and thus rendering cells unable to reduce the MTT dye. Cells are seeded in 96 well plates overnight and then treated with or without a compound/drug in the presence or absence of an protein molecule inhibitor (e.g. ABCG2 inhibitor ko143) for 48-72 hours, MTT is added to a final concentration 0.5 mg/ml. Cells are continuously incubated in a 5% CO2 incubator at 37° C. for 4 h with MTT and then lysed with a cell lysis buffer (20% SDS, 50% N,N-dimethylformamide, pH 4.7), 100 μl per well, for 4 h in the incubator. Subsequently, cell absorbance in each well is measured at 570 nm with an Ultra Microplate Reader (Bio-Tek Instruments). Results are reported as the mean±SD from 3-5 independent assays at each point. […] After 72 hours, media is removed and cells are harvested using 0.5 ml of 0.25% Trypsin-EDTA. Cells are counted and viability is analyzed on a Vi-CELL XR Cell Viability Analyzer (Beckman Coulter).

HCT116-C8 cells = assay: cells; assay type: cell-based, human
Description: as §1

survivin promoter = assay: Survivin promoter-luciferase activity assay; assay type: cell-based, human
Description: Cancer cells are seeded in 48-well plates at about 50% confluent overnight in complete cell culture medium. Cells are either stably transfected with the pLuc-4080 survivin promoter-luciferase construct or transiently transfected with relevant luciferase reporter vectors. For transient transfection, 245 ng of targeting luciferase reporter construct plus 5 ng of internal control vector, pRK-tk in 30 μl serum-free DMEM, is mixed in a 1.5 ml tube containing 30 μl serum-free DMEM containing 0.4 μl Lipofectamine™ 2000. After incubation at room temperature for 20-25 minutes, the DNA/Lipofectamine complex is added to each well of 48-well plates, which already contain 300 μl corresponding complete growth medium in each well. […] Cells are further incubated for an additional 24-48 hours in a normoxia and/or hypoxia condition, followed by processing luciferase assays. For luciferase assay, a Dual-Luciferase Reporter Assay System (Promega) is used. Cells in 48-well plates are washed with PBS and lysed with 80 μl 1× passive lysis buffer on a shaker for up to 1 hour at 4° C. Twenty μl cell lysate per well is used to measure the Firefly and Renilla luciferase activity in triplicates in a Luminometer by subsequently adding 20 μl luciferase assay reagent and 20 μl Stop-Glo reagent. […]

p53 = assay: Western blot for p53 expression in colon cancer cells with wild type p53; assay type: cell-based, human
Description: Actin is an internal control for total protein loading.
(§2) After the lysates are cleared by centrifugation at 15,000 g for 20 minutes at 4° C., the total protein is determined using Bio-Rad protein assay solution. Up to 50 μg of total protein is denatured in 2×SDS sample loading buffer for 5 minutes at 95° C., separated on 10-15% SDS-PAGE gels, and electrotransferred to the Pure Nitrocellulose Membrane (Bio-Rad, Hercules, Calif.) using semi-dry electrophoretic transfer. After the nonspecific binding sites on the membranes are blocked with 5% skim milk in TBS-T (20 mM Tris-HCl pH 7.5, 0.137 M NaCl, and 0.01% Tween 20) for 3 hours at room temperature with constant shaking, the membranes are incubated in TBS-T containing the relevant primary antibody (1: 500-1000) and 5% BSA overnight at 4° C. After washing with TB S-T three times, the membrane is incubated in 5% skim milk in TBS-T buffer containing the appropriate secondary anti-IgG antibody (1:5000) at room temperature for 1 h with constant shaking. The protein of interest is detected using Western Lightning®-ECL (Perkin Elmer, Waltham, Mass.) and visualized by exposure for various times (5-60 seconds). […]

HCT-8 cells [2] = assay: Clonogenic assay, HCT-8 cells with shC or shp53; assay type: cell-based, human; settings: 0.3 or 10 nM for 3 days, 14-days culture; shC versus shp53
Description: HCT-8 cells are infected with either control lentivirus (shC) or lentivirus expressing shRNA against human p53 (shp53). […] Cell colonies are stained with crystal violet solution after 14-days culture. […] Colonies larger than 50 cells are counted and normalized against non-treatment control group.
Cancer cells are infected with or without lentivirus particles expressing control shRNA or shRNA for p53 knockdown (pLKO.1) followed by selection with puromycin for one week at 5 μg/ml. […] Then the cells are cultured in an incubator at 37° C., 5% CO2 for another two weeks before fixation and staining with crystal violet solution. Colonies are defined as more than 50 cells and/or images are then digitally taken.

ABCG2 in HCT116-A2 cells = assay: Growth inhibition after ABCG2 shRNA silencing; assay type: cell-based, human; settings: 72 hours
Description: Actin is internal control. B and C. […] Cells at sub-confluence are infected with lentiviral particles containing nonsense shRNA (ns), or AGCG2-specific shRNA (sh1, sh2) to silence ABCG2 expression in the cells. […] Viability for each dose was determined using a ViCELL XR cell viability analyzer and normalized to that of DMSO control. Error bars=SEM, n=3 independent experiments. Data are plotted graphically and EC50 values are calculated using GraphPad Prism 6.0.

[3] = tested on: ABCC4 or ABCG2 in HCT-8 colon cancer cells; assay: MTT assay of HCT-8 cells transfected with ABCC4 or ABCG2; assay type: cell-based, human; settings: 72 hours
Description: HCT-8 colon cancer cells are transfected with empty vector (pcDNA3.1), ABCC4 or ABCG2 expression vectors as shown. […] Cell growth/viability is then determined by MTT assay.

HCT-8 cells [4] = assay: Colony formation after 2 h or 6 h drug treatment; assay type: cell-based, human; settings: 2 h or 6 h treatment, 2 weeks growth
Description: Subconfluent SW620, HCT-8, and HCT-116 cells were lysed and analyzed for the expression of MDR1 and ABCG2 using western blots (WB). Actin is the internal control. […] Cell growth/viability was then analyzed by MTT assays. Each time point in the individual curve is the mean±SD from 3 to 5 independent assays. […] Drugs were then washed out and cells were allowed to grow in new medium without drugs for 2 weeks. Cell colonies were stained with crystal violet solution; images were digitally taken. Triplicate results are shown.
Cell growth is then measured and the data are plotted as percentage of growth inhibition (no drug treatment was set at 0%). […] C. […] Representative cancer cell images were taken with a digital camera under phase-contrast microscope.

[5] = tested on: colorectal cancer PDX (11124, 14528); assay: Colorectal cancer patient-derived xenografts (PDX); parameters: species or system SCID mice; settings: mouse, in vivo
Source text: Individual PDX were subcutaneously inoculated into SCID mice. […] Individual PDX tumor curves derived from individual mice are shown. […] Two examples of colorectal cancer PDX (11124, 14528) are shown.

[6] = tested on: pancreatic cancer PDX tumors (12872, 12914, 14244, 17624, 19015); assay: Pancreatic cancer patient-derived xenografts (PDX); parameters: species or system SCID mice; settings: mouse, in vivo
PARP cleavage = settings: p53 null versus p53 wild type HCT116
Description: Actin is used as internal controls for total protein loading.
as §2

HdmX, Hdm2 = assay: HdmX and Hdm2 protein and mRNA levels in HCT-8 cells
Description: Rescue of HdmX degradation by proteasome inhibitor MG132. […] Cell lysates are then analyzed by immunoblotting of HdmX. Actin expression is used as an internal control.

Hdm2/HdmX complex = Hdm2/HdmX complex (Homo sapiens, UniProt O15151+Q00987); assay: In vitro ubiquitination assay with recombinant proteins
Description: The ubiquitinated p53 (Ub-p53) bands are detected as shown.
The reaction products are resolved by SDS-PAGE followed by immunoblotting with p53 antibody DO-1. For HdmX ubiquitination in vitro, reactions are performed in a 50-μl volume. After completion of the reactions, 10 μl is used for direct immunoblotting to reveal HdmX ubiquitination (a smearing pattern) with FLAG antibody. 40 μl reactions are used for denaturing with 1% SDS followed by dilution with 800 μl of 20 mM Tris, pH7.5, 0.5% NP40, and 120 mM NaCl. The processed reaction products are used for immunoprecipitation with ubiquitin antibody followed by immunoblotting for FLAG-HdmX using anti-FLAG antibodies.

[7] = tested on: IAP and Bcl-2 family genes; assay: Affymetrix Human Gene 1.0 ST Array of FL118-treated PC3 cells; settings: DNA microarray
[8] = IC50 of topotecan divided by IC50 of the drug

Chain of Hdm2/HdmX complex (Q00987 whole entry): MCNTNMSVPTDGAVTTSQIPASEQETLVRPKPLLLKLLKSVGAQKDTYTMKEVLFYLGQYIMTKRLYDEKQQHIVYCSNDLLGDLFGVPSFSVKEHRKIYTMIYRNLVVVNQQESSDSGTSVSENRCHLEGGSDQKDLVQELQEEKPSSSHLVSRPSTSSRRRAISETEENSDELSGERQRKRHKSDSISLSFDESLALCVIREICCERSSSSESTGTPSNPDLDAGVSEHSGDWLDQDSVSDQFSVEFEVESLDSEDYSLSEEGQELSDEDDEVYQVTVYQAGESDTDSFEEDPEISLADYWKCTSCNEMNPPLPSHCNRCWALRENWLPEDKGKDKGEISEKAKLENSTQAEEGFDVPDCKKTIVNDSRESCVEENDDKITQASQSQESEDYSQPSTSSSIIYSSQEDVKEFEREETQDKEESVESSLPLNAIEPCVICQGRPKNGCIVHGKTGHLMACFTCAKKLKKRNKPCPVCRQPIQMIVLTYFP
Chain of Hdm2/HdmX complex (O15151 whole entry): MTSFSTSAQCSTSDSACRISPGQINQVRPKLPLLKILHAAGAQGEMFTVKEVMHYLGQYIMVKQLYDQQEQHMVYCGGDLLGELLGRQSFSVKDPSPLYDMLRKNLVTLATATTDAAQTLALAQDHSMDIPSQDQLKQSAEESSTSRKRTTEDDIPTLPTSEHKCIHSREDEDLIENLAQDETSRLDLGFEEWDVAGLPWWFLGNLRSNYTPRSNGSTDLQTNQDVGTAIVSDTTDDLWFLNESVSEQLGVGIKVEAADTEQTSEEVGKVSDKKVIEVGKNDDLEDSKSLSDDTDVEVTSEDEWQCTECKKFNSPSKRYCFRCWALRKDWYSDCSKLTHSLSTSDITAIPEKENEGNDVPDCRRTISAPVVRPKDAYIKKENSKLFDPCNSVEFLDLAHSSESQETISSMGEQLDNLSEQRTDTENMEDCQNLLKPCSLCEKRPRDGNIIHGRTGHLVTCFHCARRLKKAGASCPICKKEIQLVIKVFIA
Source text for FaDu and SW620 tumors: Three types of human cancer xenografts are used in the studies: 1) from human head-&-neck cancer cell line (FaDu)-established xenografts; 2) from human colon cancer cell line (SW620)-established xenografts; and 3) from human acute lymphocytic leukemia cell line (EU-4)-established xenografts. All in vivo experiments use either nude or severe combined immunodeficiency (SCID) mice. Human tumor cell line-derived xenografts are initially established by subcutaneously injecting 1×10^6 cultured cancer cells. The derived tumors are then passed several generations in mice by transplanting 40-50 mg non-necrotic tumor mass via a trocar after the xenograft tumor reached ˜1000 mm^3. Treatment is initiated 7 days after tumor transplantation when the tumor reached 200-250 mm^3, at which time the treatment was designated as Day 0. Six to 12-week-old female SCID mice used in the studies. All animal experiments are performed in accordance with IACUC-approved animal protocols. Mice were housed 5 mice per cage with water and food ad libitum.

CC[C@@]1(O)C(=O)OCc2c1cc1n(c2=O)Cc2cc3cc4c(cc3nc2-1)OCO4 [FL118]
T1/2 ([1]; FaDu tumor, iv 1.5 mg/kg): 411.1 min
Tmax ([1]; FaDu tumor, iv 1.5 mg/kg): 10 min
Vz ([1]; FaDu tumor, iv 1.5 mg/kg): 33052 g/kg
T1/2 ([1]; SW620 tumor, iv 1.5 mg/kg): 765 min
Tmax ([1]; SW620 tumor, iv 1.5 mg/kg): 10 min
Vz ([1]; SW620 tumor, iv 1.5 mg/kg): 30742 g/kg
time FL118 is maintained in tumor ([1]; intravenous injection): over 48 hours
time to clearance from blood ([1]; intravenous injection): ≤ 12 h
Cl ([1]; mouse plasma, iv 1.5 mg/kg): 238.12 mL/min/kg
Cmax ([1]; mouse plasma, iv 1.5 mg/kg): 43 ng/mL
T1/2 ([1]; mouse plasma, iv 1.5 mg/kg): 107.3 min
Tmax ([1]; mouse plasma, iv 1.5 mg/kg): 10 min
Vz ([1]; mouse plasma, iv 1.5 mg/kg): 36.849 L/kg
IC50 (HCT116-A2 cells): 0.163 nM
RP (HCT116-A2 cells; [8]): 666.5
IC50 (HCT116-C8 cells): 0.0937 nM
RP (HCT116-C8 cells; [8]): 4041
concentration that can effectively inhibit survivin promoter activity (survivin promoter): 1 to 10 nM
hypoxia-induced survivin promoter activity (survivin promoter; HCT116 cells with full-length survivin promoter-luciferase, 24 h, hypoxia): abrogated by FL118 treatment
p53 protein expression (p53): strong and rapid induction of p53 expression
clonogenic growth (HCT-8 cells [2]): inhibits clonogenic growth independent of p53 status
effect of silencing of ABCG2 on cell growth inhibition (ABCG2 in HCT116-A2 cells): shows no effect to FL118
effect of forced expression of ABCC4 or ABCG2 on resistance [3]: fails to increase FL118 resistance
more effective to inhibit colony formation than topotecan (HCT-8 cells [4]): > 100 time
antitumor activity on the same PDX on different mice [5]: very similar antitumor activity to the same tumor on different SCID mice
efficacy on different PDX tumors of the same type [6]: much different efficacy to different tumors of the same type
mouse deaths (FaDu and SW620 tumors; large tumors, stored FL118 solution, attributed to possible Tumor Lysis Syndrome): death of two mice on Day 37
antitumor activity of stored solution (FaDu and SW620 tumors; ready-to-use solution stored at 4° C. for 6 months, 1.5 mg/kg weekly for 4 weeks): as effective as the newly formulated solution
PARP cleavage (PARP cleavage): more effective to induce PARP cleavage in p53 null HCT116 colon cancer cells than in p53 wild type HCT116 cells
mRNA levels of HdmX and p21 (quantitative real time PCR) (HdmX, Hdm2; FL118 treatment for 8 h): does not significantly alter the mRNA levels of HdmX but increases the control gene p21 mRNA levels
time to HdmX downregulation after treatment (HdmX, Hdm2; HCT-8 cells, 100 nM, time course): ≤ 4 h
proteasomal degradation of HdmX and Hdm2 (HdmX, Hdm2; HCT-8 cells, 10 and 100 nM): promotes proteasomal degradation of HdmX but not Hdm2
Hdm2-mediated HdmX ubiquitination in vitro (Hdm2/HdmX complex): stimulates Hdm2-mediated HdmX ubiquitination in a concentration-dependent manner
Mdm2-MdmX mediated p53 polyubiquitination in vitro (Hdm2/HdmX complex): moderately inhibits
expression of Bcl-2 family antiapoptotic genes [7]: slightly decreases Mcl-1 and Bcl-XL, and shows no effect on Bcl-2, Bcl2A1, Bcl-w, Bcl-B, Bcl2L12, Bcl2L13, Bcl-G and Bcl2L15
expression of IAP family genes [7]: decreases (2 fold cutoff) NAIP, cIAP2, XIAP and Bruce, and shows no effects on cIAP1, Livin and hILP2
expression of proapoptotic proteins [7]: increases proapoptotic proteins Bax, Bad, Bim, Hrk, and Bmf without affecting the expression of Bid, Bik, Bak and Bok
